This note sets out measurements from patent US12643910B2, “Substituted pyrazolo[3,4-b]pyridines as ectonucleotide pyrophosphatase/phosphodiesterase 1 (ENPP1) modulators” (SANFORD BURNHAM PREBYS MEDICAL DISCOVERY INSTITUTE, priority 2019, dated 2026).

Assay [1] deals with T1, ENPP3 (Homo sapiens, UniProt O14638).
T1 sequence (O14638 1-875): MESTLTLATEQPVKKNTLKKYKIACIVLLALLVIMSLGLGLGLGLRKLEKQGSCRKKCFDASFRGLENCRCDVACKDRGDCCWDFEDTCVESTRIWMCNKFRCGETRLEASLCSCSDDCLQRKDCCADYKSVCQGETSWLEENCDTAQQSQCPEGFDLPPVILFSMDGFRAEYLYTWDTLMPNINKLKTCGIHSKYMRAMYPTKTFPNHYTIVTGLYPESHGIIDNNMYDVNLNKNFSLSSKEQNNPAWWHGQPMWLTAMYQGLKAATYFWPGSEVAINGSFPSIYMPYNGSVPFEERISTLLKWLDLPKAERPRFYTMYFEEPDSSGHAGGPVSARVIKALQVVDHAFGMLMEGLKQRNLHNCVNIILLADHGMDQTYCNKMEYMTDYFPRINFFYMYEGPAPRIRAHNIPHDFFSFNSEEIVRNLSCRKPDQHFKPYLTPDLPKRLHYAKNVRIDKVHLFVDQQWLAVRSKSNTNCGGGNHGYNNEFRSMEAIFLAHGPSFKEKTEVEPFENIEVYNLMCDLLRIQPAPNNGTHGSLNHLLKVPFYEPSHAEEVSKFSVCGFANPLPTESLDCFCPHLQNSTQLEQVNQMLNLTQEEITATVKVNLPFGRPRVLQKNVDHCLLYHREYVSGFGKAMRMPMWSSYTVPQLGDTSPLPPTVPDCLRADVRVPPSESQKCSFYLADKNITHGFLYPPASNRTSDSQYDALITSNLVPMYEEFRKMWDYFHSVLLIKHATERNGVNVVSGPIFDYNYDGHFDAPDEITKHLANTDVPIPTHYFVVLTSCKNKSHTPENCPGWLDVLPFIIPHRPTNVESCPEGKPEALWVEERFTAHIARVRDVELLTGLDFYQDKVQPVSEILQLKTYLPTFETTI
In words: ENPP3 Km ATP assay. Format: biochemical. The conditions noted are these: ATP at Km.

Assay [2] deals with T2, human ENPP1 (Homo sapiens, UniProt P22413).
T2 construct: made in house
T2 sequence (P22413 1-925): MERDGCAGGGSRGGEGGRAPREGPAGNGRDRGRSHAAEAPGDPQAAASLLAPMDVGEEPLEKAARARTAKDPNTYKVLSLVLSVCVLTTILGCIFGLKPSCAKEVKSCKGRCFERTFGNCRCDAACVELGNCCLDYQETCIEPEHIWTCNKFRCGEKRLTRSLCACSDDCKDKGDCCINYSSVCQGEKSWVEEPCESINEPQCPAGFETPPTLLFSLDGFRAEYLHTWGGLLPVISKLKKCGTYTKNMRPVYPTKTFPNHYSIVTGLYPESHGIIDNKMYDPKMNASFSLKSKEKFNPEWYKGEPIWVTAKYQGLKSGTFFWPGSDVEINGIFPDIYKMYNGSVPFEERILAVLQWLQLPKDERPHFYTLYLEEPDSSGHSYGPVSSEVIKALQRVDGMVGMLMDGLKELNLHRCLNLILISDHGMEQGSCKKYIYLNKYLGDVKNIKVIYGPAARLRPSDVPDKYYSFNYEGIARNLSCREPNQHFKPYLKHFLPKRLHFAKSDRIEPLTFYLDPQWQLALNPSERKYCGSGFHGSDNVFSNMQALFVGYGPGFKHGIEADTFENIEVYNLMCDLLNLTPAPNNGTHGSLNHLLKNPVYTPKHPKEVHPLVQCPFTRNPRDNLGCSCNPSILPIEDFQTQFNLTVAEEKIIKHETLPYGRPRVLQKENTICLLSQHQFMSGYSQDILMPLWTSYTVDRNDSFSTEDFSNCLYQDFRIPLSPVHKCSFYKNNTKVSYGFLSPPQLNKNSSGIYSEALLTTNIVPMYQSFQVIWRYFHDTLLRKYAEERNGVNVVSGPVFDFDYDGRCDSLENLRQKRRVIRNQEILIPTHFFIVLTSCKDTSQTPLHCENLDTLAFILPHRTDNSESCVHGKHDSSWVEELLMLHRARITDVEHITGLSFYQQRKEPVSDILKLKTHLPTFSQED
In words: ENPP1 assay with ATP substrate (Transcreener AMP2/GMP2 TR-FRET). Format: biochemical. To be noted: 1 hour at room temperature. The text has this: Example B1: ENPP1 Assay with ATP Substrate
Ectonucleotide pyrophosphatase/phosphodiesterase 1 (ENPP1) hydrolyzes ATP, breaking it down into 5′-AMP and pyrophosphate. The 5′-AMP formed from the reaction is detected by Transcreener® AMP2/GMP2 TR-FRET Assay (Bellbrook), containing AMP-tracer (HiLyte 647) and anti-AMP Terbium (Tb) donor. 5′-AMP generated in the reaction competes with AMP-tracer for binding with Anti-AMP Tb donor, and decreases TR-FRET signal.
Different concentrations of ENPP1 inhibitors are added to dry assay plate, followed by 2 μl 300 nM ATP. The reaction is initiated with the addition of 2 μl 8.5 μM human ENPP1 (generated by SBP Protein group). The assay reaction mixture contains a buffer of 50 mM Tris, pH 7.5, 1 mM TCEP, 2 mM MgCl2, 0.005% Tween 20, and 1% DMSO. The reaction is stopped after 1 hour at room temperature by adding 2 μL of 2 nM AMP-tracer and 2 μl of 2 nM Anti-AMP Tb donor in the 50 mM Tris, pH 7.5, buffer containing 20 mM EDTA and 0.1% Prionex. After 2 hour additional incubation at room temperature, the generated signal is measured using BMG Lab PHERASTAR instrument. 100% activity control samples (containing enzyme, substrate, buffer: MAX) and no enzyme control samples (containing substrate and buffer: MIN) are utilized to calculate percent inhibition (%) for each compound concentration well (COMPOUND) as follows.
The IC50 values are determined by fitting the inhibition curves with 2-parameter variable slope model in Graphpad Prism software using percent inhibition vs compound concentration data: […]
(Time-resolved FRET reads energy transfer from a long-lived donor to a nearby acceptor.)

Structures are written as SMILES.

Turning to `NS(=O)(=O)c1ccc(CNc2nc(-c3ccccn3)nc3scc(-c4ccccc4)c23)cc1F` [Example 1.13, 2-Fluoro-4-(((5-phenyl-2-(pyridin-2-yl)thieno[2,3-d]pyrimidin-4-yl)amino)methyl)benzenesulfonamide], the IC50 in assay [1] was 0.1 to 1 µM; in assay [2], less than 0.1 µM.
The corresponding values for `NS(=O)(=O)c1ccc(CNc2nc(-c3ccccn3)nc3scc(-c4ccccc4)c23)cc1C(F)(F)F` [Example 1.14, 4-(((5-Phenyl-2-(pyridin-2-yl)thieno[2,3-d]pyrimidin-4-yl)amino)methyl)-2-(trifluoromethyl)benzenesulfonamide] are 0.1 to 1 µM and less than 0.1 µM.
On the same counts, the results for `Cc1cc(S(N)(=O)=O)ccc1CNc1nc(-c2ccccn2)nc2scc(-c3ccccc3)c12` [Example 1.15, 3-Methyl-4-(((5-phenyl-2-(pyridin-2-yl)thieno[2,3-d]pyrimidin-4-yl)amino)methyl)-benzenesulfonamide] are 0.1 to 1 µM and 0.1 to 1 µM.
As for `COc1cc(CNc2nc(-c3ccccn3)nc3scc(-c4ccccc4)c23)ccc1S(N)(=O)=O` [Example 1.16, 2-Methoxy-4-(((5-phenyl-2-(pyridin-2-yl)thieno[2,3-d]pyrimidin-4-yl)amino)methyl)benzenesulfonamide], the IC50 in assay [1] is 1 to 20 µM; in assay [2] it was 0.1 to 1 µM.
On to `COc1cc(S(N)(=O)=O)ccc1CNc1nc(-c2ccccn2)nc2scc(-c3ccccc3)c12` [Example 1.17, 3-Methoxy-4-(((5-phenyl-2-(pyridin-2-yl)thieno[2,3-d]pyrimidin-4-yl)amino)methyl)-benzenesulfonamide], for which the IC50 in assay [1] is 1 to 20 µM; in assay [2], less than 0.1 µM.
The corresponding values for `NS(=O)(=O)c1ccc(CNc2nc(-c3ccccn3)nc3scc(-c4ccccc4)c23)cc1Cl` [Example 1.18, 2-Chloro-4-(((5-phenyl-2-(pyridin-2-yl)thieno[2,3-d]pyrimidin-4-yl)amino)methyl)-benzenesulfonamide] are 0.1 to 1 µM and less than 0.1 µM.
With `Cc1cc(CNc2nc(-c3ccccn3)nc3scc(-c4ccccc4)c23)ccc1S(N)(=O)=O` [Example 1.19, 2-Methyl-4-(((5-phenyl-2-(pyridin-2-yl)thieno[2,3-d]pyrimidin-4-yl)amino)methyl)-benzenesulfonamide], the half-maximal inhibitory concentration (IC50) is 0.1 to 1 µM in assay [1] and less than 0.1 µM in assay [2].
The corresponding values for `NS(=O)(=O)c1ccc(CNc2nc(-c3ccccn3)nc3scc(-c4ccncc4)c23)cc1` [Example 1.20, 4-(((2-(Pyridin-2-yl)-5-(pyridin-4-yl)thieno[2,3-d]pyrimidin-4-yl)amino)methyl)-benzenesulfonamide] are more than 20 µM and 1 to 20 µM.
On the same counts, the results for `NS(=O)(=O)c1ccc(CNc2nc(-c3ccccn3)nc3scc(-c4ccccc4)c23)c(Cl)c1` [Example 1.21, 3-Chloro-4-(((5-phenyl-2-(pyridin-2-yl)thieno[2,3-d]pyrimidin-4-yl)amino)methyl)-benzenesulfonamide] are 0.1 to 1 µM and less than 0.1 µM.
For `NS(=O)(=O)c1ccc(CNc2nc(-c3ccccn3)nc3scc(-c4cccnc4)c23)cc1` [Example 1.22, 4-(((2-(Pyridin-2-yl)-5-(pyridin-3-yl)thieno[2,3-d]pyrimidin-4-yl)amino)methyl)-benzenesulfonamide], the IC50 is 1 to 20 µM in assay [1] and less than 0.1 µM in assay [2].
The corresponding values for `NS(=O)(=O)c1ccc(CNc2nc(-c3ccccn3)nc3scc(-c4ccccn4)c23)cc1` [Example 1.23, 4-(((2,5-Di(pyridin-2-yl)thieno[2,3-d]pyrimidin-4-yl)amino)methyl)benzenesulfonamide] are 1 to 20 µM and 0.1 to 1 µM.
With `NS(=O)(=O)c1ccc(CNc2nc(-c3ccccc3)nc3scc(-c4ccccc4)c23)cc1` [Example 1.24, 4-(((2,5-Diphenylthieno[2,3-d]pyrimidin-4-yl)amino)methyl)benzenesulfonamide], the IC50 in assay [1] and in assay [2] was more than 20 µM in each case.
On to `CN1CCN(c2nc(NCc3ccc(S(N)(=O)=O)cc3)c3c(-c4ccccc4)csc3n2)CC1` [Example 1.25, 4-(((2-(4-Methylpiperazin-1-yl)-5-phenylthieno[2,3-d]pyrimidin-4-yl)amino)methyl)-benzenesulfonamide], for which the IC50 in assay [1] and in assay [2] was less than 0.1 µM throughout.
`NS(=O)(=O)c1ccc(CNc2nc(NC3CC3)nc3scc(-c4ccccc4)c23)cc1` [Example 1.26, 4-(((2-(Cyclopropylamino)-5-phenylthieno[2,3-d]pyrimidin-4-yl)amino)methyl)-benzenesulfonamide]: the IC50 in assay [1] and in assay [2] was less than 0.1 µM each time.
Regarding `NS(=O)(=O)c1ccc(CNc2nc(-c3ccccc3)nc3scc(-c4ccccc4)c23)s1` [Example 1.27, 5-(((2,5-Diphenylthieno[2,3-d]pyrimidin-4-yl)amino)methyl)thiophene-2-sulfonamide], the IC50 in assay [1] is more than 20 µM; in assay [2], 1 to 20 µM.
On the same counts, the results for `NS(=O)(=O)c1ccc(CNc2ncnc3scc(-c4ccccc4)c23)s1` [Example 1.28, 5-(((5-Phenylthieno[2,3-d]pyrimidin-4-yl)amino)methyl)thiophene-2-sulfonamide] are more than 20 µM and 1 to 20 µM.
As to `NS(=O)(=O)c1ccc(CNc2nc(-c3ccncc3)nc3scc(-c4ccccc4)c23)s1` [Example 1.29, 5-(((5-Phenyl-2-(pyridin-4-yl)thieno[2,3-d]pyrimidin-4-yl)amino)methyl)thiophene-2-sulfonamide], the half-inhibitory concentration (IC50) in assay [1] and in assay [2] was more than 20 µM in each case.
As for `NS(=O)(=O)c1ccc(CNc2nc(-c3cccnc3)nc3scc(-c4ccccc4)c23)s1` [Example 1.30, 5-(((5-Phenyl-2-(pyridin-3-yl)thieno[2,3-d]pyrimidin-4-yl)amino)methyl)thiophene-2-sulfonamide], the values for the IC50 in assay [1] and in assay [2] were more than 20 µM and 1 to 20 µM, respectively.
On the same counts, the results for `NS(=O)(=O)c1ccc(CNc2nc(-c3ccccn3)nc3scc(-c4ccccc4)c23)s1` [Example 1.31, 5-(((5-Phenyl-2-(pyridin-2-yl)thieno[2,3-d]pyrimidin-4-yl)amino)methyl)thiophene-2-sulfonamide] are 0.1 to 1 µM and less than 0.1 µM.

For orientation: IC50 means the concentration that inhibits the measured activity by half. A low value points to inhibition by little substance.
